# According to patent US20080171737A1 (Wyeth, priority 2006, published 2008):
# Where a name gives a salt, the structure may show the parent alone.
# Molecular target: T1, human hNET (Homo sapiens, UniProt P23975)
# T1 construct: expressed in transfected cells; host or cells: MDCK-Net6 (MDCK cells stably transfected with hNET)
# Assay: Functional norepinephrine reuptake assay, Procedure B (6,000 cells/well)
# Format: cell-based
# Conditions: MDCK-Net6 cells, 6,000 cells/well, 16 nM 3H-norepinephrine; read-out: Procedure B hNET uptake IC50
# How it was run: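 MDCK cells stably expressing human NET, 6,000 cells/well, in HEPES-buffered saline pH 7.4 with ascorbic acid and 1 μM pargyline; compound preincubated 5 min at 37° C. ^3H norepinephrine uptake counted by scintillation; non-specific defined with 20 μM desipramine. IC50 from variable-slope sigmoidal nonlinear fit.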
# T1 sequence (P23975 whole entry): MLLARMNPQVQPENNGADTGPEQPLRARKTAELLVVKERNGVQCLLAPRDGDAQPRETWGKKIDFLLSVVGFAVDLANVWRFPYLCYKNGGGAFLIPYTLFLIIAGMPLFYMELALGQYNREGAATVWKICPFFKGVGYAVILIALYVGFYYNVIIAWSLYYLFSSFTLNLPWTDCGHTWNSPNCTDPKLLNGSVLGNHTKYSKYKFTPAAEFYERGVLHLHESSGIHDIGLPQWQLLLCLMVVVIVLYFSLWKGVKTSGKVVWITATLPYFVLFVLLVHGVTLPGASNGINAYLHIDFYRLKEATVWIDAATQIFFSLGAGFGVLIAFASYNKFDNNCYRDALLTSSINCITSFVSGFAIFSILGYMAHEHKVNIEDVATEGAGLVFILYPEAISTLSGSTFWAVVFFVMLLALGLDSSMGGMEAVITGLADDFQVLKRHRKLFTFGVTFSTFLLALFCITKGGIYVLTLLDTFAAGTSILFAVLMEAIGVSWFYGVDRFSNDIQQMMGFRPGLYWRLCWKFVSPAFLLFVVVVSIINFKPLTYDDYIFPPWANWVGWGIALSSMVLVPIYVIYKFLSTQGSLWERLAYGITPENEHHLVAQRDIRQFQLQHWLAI
row,IC50 [nM],SMILES
1,18.5,"CNCCCC1Cc2ccccc2N(c2ccccc2)S1(=O)=O (centres unmarked) [Example 1, 3-(2,2-dioxido-1-phenyl-3,4-dihydro-1H-2,1-benzothiazin-3-yl)-N-methylpropan-1-amine]"
2,0.7,"CNCCCC1Oc2ccccc2N(c2ccccc2)S1(=O)=O (centres unmarked) [Example 12, 3-(2,2-dioxido-1-phenyl-1H-4,2,1-benzoxathiazin-3-yl)-N-methylpropan-1-amine]"
3,18,"CNCCCC1Cc2ccccc2N(c2ccccc2F)S1(=O)=O (centres unmarked) [Example 89, 3-[1-(2-fluorophenyl)-2,2-dioxido-3,4-dihydro-1H-2,1-benzothiazin-3-yl]-N-methylpropan-1-amine]"
4,19,CNCCCC1Oc2ccccc2N(c2ccccc2F)S1(=O)=O (centres unmarked) [Example 92]
5,24,"CNCCCC1Cc2cc(F)ccc2N(c2ccccc2F)S1(=O)=O (centres unmarked) [Example 108, 3-[6-fluoro-1-(2-fluorophenyl)-2,2-dioxido-3,4-dihydro-1H-2,1-benzothiazin-3-yl]-N-methylpropan-1-amine]"
6,95,"CNCCCC1Oc2cc(F)ccc2N(c2ccccc2F)S1(=O)=O (centres unmarked) [Example 129, 3-[6-fluoro-1-(2-fluorophenyl)-2,2-dioxido-1H-4,2,1-benzoxathiazin-3-yl]-N-methylpropan-1-amine hydrochloride]"
7,16,"C=C(CNC)CC1Cc2ccccc2N(c2ccccc2)S1(=O)=O (centres unmarked) [Example 132, 2-[(2,2-dioxido-1-phenyl-3,4-dihydro-1H-2,1-benzothiazin-3-yl)methyl]-N-methylprop-2-en-1-amine]"
8,788,"CN(C)CC1Oc2ccccc2N(c2ccccc2)S1(=O)=O (centres unmarked) [Example 134, 1-(2,2-dioxido-1-phenyl-1H-4,2,1-benzoxathiazin-3-yl)-N,N-dimethylmethanamine]"
9,165,"O=S1(=O)C(CN2CCNCC2)Oc2ccccc2N1c1ccccc1 (centres unmarked) [Example 135, 1-phenyl-3-(piperazin-1-ylmethyl)-1H-4,2,1-benzoxathiazine 2,2-dioxide]"
10,1360,"CCNCC1Oc2ccccc2N(c2ccccc2)S1(=O)=O (centres unmarked) [Example 136, N-[(2,2-dioxido-1-phenyl-1H-4,2,1-benzoxathiazin-3-yl)methyl]ethanamine]"
11,193,"NCCNCC1Oc2ccccc2N(c2ccccc2)S1(=O)=O (centres unmarked) [Example 137, N-[(2,2-dioxido-1-phenyl-1H-4,2,1-benzoxathiazin-3-yl)methyl]ethane-1,2-diamine]"
12,3750,"CN(C)CCNCC1Oc2ccccc2N(c2ccccc2)S1(=O)=O (centres unmarked) [Example 138, N′-[(2,2-dioxido-1-phenyl-1H-4,2,1-benzoxathiazin-3-yl)methyl]-N,N-dimethylethane-1,2-diamine]"
13,644,"CNCCN(C)CC1Oc2ccccc2N(c2ccccc2)S1(=O)=O (centres unmarked) [Example 139, N-[(2,2-dioxido-1-phenyl-1H-4,2,1-benzoxathiazin-3-yl)methyl]-N,N′-dimethylethane-1,2-diamine]"
14,4320,"CN(C)CCN(C)CC1Oc2ccccc2N(c2ccccc2)S1(=O)=O (centres unmarked) [Example 140, N-[(2,2-dioxido-1-phenyl-1H-4,2,1-benzoxathiazin-3-yl)methyl]-N,N′,N′-trimethylethane-1,2-diamine]"
15,1150,"CC1CN(CC2Oc3ccccc3N(c3ccccc3)S2(=O)=O)CC(C)N1 (centres unmarked) [Example 142, 3-[(3,5-dimethylpiperazin-1-yl)methyl]-1-phenyl-1H-4,2,1-benzoxathiazine 2,2-dioxide]"
16,231,"O=S1(=O)C(CN2CC3CC2CN3)Oc2ccccc2N1c1ccccc1 (centres unmarked) [Example 143, 3-(2,5-diazabicyclo[2.2.1]hept-2-ylmethyl)-1-phenyl-1H-4,2,1-benzoxathiazine 2,2-dioxide]"
17,42,"CNCCCC1Cc2cc(Cl)ccc2N(c2ccccc2F)S1(=O)=O (centres unmarked) [Example 175, 3-[6-chloro-1-(2-fluorophenyl)-2,2-dioxido-3,4-dihydro-1H-2,1-benzothiazin-3-yl]-N-methylpropan-1-amine]"

# Same assay, conditions: MDCK-Net6 cells, 6,000 cells/well; Conc 6000 nM (6 μM); read-out: Procedure B hNET uptake (% inhibition)
row,inhibition at 6 µM [%],SMILES
1,30,"CN1CCN(CC2Oc3ccccc3N(c3ccccc3)S2(=O)=O)CC1 (centres unmarked) [Example 141, 3-[(4-methylpiperazin-1-yl)methyl]-1-phenyl-1H-4,2,1-benzoxathiazine 2,2-dioxide]"
2,53,"CNCC1Oc2ccccc2N(c2ccccc2)S1(=O)=O (centres unmarked) [Example 144, 1-(2,2-dioxido-1-phenyl-1H-4,2,1-benzoxathiazin-3-yl)-N-methylmethanamine]"

# Molecular target: T1, human hNET
# Assay: Functional norepinephrine reuptake assay, Procedure A (50,000 cells/well)
# Format: cell-based
# Conditions: MDCK-Net6 cells, 50,000 cells/well, 16 nM 3H-norepinephrine; read-out: Procecedure A NE Uptake IC50
# Protocol: For screening, 25 μl aliquots of compound solution at a 1 μM or 10 μM final concentration was delivered directly to cells.
# For IC50 determinations, stock compounds were prepared at 10 mM from powder. The stock solution was diluted according to compound testing range. Typically, the compound testing range was from 6 nM to 6 μM by half log dilutions. On the day of assay, 25 μl of compound solution at the specified concentrations were added to the plates containing cells. A DMSO stock of desipramine was prepared at 10 mM in DMSO and diluted for a final concentration of 20 μM to determine the non-specific reuptake.
# MDCK-Net6 cells, stably transfected with human hNET (Pacholczyk, 1991), were maintained in growth media [high glucose DMEM (Gibco Cat. 11995), 10% FBS (dialyzed, heat-inactivated, Sigma, dialysed, heat inactivated, Lot# K0922 or equivalent) 1xPen/Strep, and 500 μg/ml G418 (Gibco Cat. 10131)]. Cells were plated at 300,000/T75 flask and cells split twice weekly.
# Cells were plated at 50,000 cells/well (Procedure A) or 6,000 cells/well (Procedure B) on day 1 in BD Falcon Microtest 96-well sterile cell culture plates, Optilux White/Clear Bottom TC plate (VWR; # 62406-466 or equivalent) in growth media and maintained in a cell incubator (37° C., 5% CO2). On Day 2, cells were removed from the cell incubator and the growth media is replaced by 200 μl of assay buffer (25 mm HEPES 120 mM NaCL; 5 mM KCl; 2.5 mM CaCl2; 1.2 mM MgSO4; 2 mg/ml glucose (pH 7.4, 37° C.)) containing 0.2 mg/ml ascorbic acid and 1 μM parglyine. For screening, 25 μl of compound in 4% DMSO was added directly to each well and the plate was incubated for 5 minutes (37° C.). To initiate the norepinephrine reuptake, 16 nM (final concentration) of ^3H norepinephrine (specific activity; 40-80 Ci/mmol) in assay buffer was delivered in 25 μl aliquots to each well, and the plates were incubated for 5 min at 37° C. The reaction is aspirated from the plate and the cells washed with 250 μl of 50 mM Tris Buffer (4° C.). The plates were left to dry for 1 hour. The cells were lysed using 0.25 M NaOH solution then placed on a shake table and vigorously shaken for 10 minutes. After cell lysis, 100 μl of Microscint 20 (PerkinElmer; #87-051101) was added to the plates and the plates were sealed with film tape and replaced on the shake table for a minimum of 10 minutes. The plates were counted in a TopCount counter (PerkinElmer).
# For screening single point determinations, each compound plate contained at least 3 control wells (maximum NE reuptake determinant) and 3 non-specific wells determined by adding 20 μM of desipramine (minimum NE reuptake determinant). Determination of active compounds was calculated using a Microsoft Excel spread sheet applying the following formula:
# % inhibition=[1−((mean cpm test compound wells−mean cpm non-specific wells)/(mean cpm control wells−mean cpm non-specific wells))]×100
# For IC50 determination, raw cpm values were generated in a data file from the TopCount counter. The data was organized using the Microsoft Excel and transferred into PRIZM graphing and statistical program, which calculated the estimated IC50 value. Calculation of IC50 values was made using non-linear regression analysis with a sigmoidal dose response with variable slope. The statistical program used wells containing ^3H norepinephrine only as the maximal NE reuptake determinant and wells containing ^3H norepinephrine plus 20 μM desipramine (AHR-9543) as the minimal NE reuptake determinant (non-specific determinant). Estimation of the IC50 value was completed on a log scale and the line was fit between the maximal and minimal NE reuptake values.
row,IC50 [nM],SMILES
1,113,"CNCCC[C@]1(C)Cc2ccccc2N(c2ccccc2)S1(=O)=O (single isomer, unassigned) [Example 9]"
2,33.5,"CNCCCC1Cc2ccccc2N(c2ccccc2)S1(=O)=O (centres unmarked) [Example 1, 3-(2,2-dioxido-1-phenyl-3,4-dihydro-1H-2,1-benzothiazin-3-yl)-N-methylpropan-1-amine]"
3,233,"NCCCC1Cc2ccccc2N(c2ccccc2)S1(=O)=O (centres unmarked) [Example 2, 3-(2,2-dioxido-1-phenyl-3,4-dihydro-1H-2,1-benzothiazin-3-yl)propan-1-amine]"
4,484,"CN(C)CCCC1Cc2ccccc2N(c2ccccc2)S1(=O)=O (centres unmarked) [Example 3, 3-(2,2-dioxido-1-phenyl-3,4-dihydro-1H-2,1-benzothiazin-3-yl)-N,N dimethylpropan-1-amine]"
5,1880,"CCNCCCC1Cc2ccccc2N(c2ccccc2)S1(=O)=O (centres unmarked) [Example 4, 3-(2,2-dioxido-1-phenyl-3,4-dihydro-1H-2,1-benzothiazin-3-yl)-N-ethylpropan-1-amine]"
6,166,"CC(C)NCCCC1Cc2ccccc2N(c2ccccc2)S1(=O)=O (centres unmarked) [Example 5, 3-(2,2-dioxido-1-phenyl-3,4-dihydro-1H-2,1-benzothiazin-3-yl)-N-isopropyl propan-1-amine]"
7,133,"O=S1(=O)C(CCCN2CCCC2)Cc2ccccc2N1c1ccccc1 (centres unmarked) [Example 6, 1-phenyl-3-(3-pyrrolidin-1-ylpropyl)-3,4-dihydro-1H-2,1-benzothiazine 2,2-dioxide]"
8,3010,"O=S1(=O)C(CCCNCc2ccccc2)Cc2ccccc2N1c1ccccc1 (centres unmarked) [Example 7, N-benzyl-3-(2,2-dioxido-1-phenyl-3,4-dihydro-1H-2,1-benzothiazin-3-yl)propan-1-amine]"
9,33.1,"CNCCCC1Oc2ccccc2N(c2ccccc2)S1(=O)=O (centres unmarked) [Example 12, 3-(2,2-dioxido-1-phenyl-1H-4,2,1-benzoxathiazin-3-yl)-N-methylpropan-1-amine]"

# Same assay, conditions: MDCK-Net6 cells, 50,000 cells/well; Conc 2000 nM
row,Procedure A [3H] NE Uptake Displacement % [%],SMILES
1,17,"O=S1(=O)C(CCCNC2CCCCC2)Cc2ccccc2N1c1ccccc1 (centres unmarked) [Example 8, N-[3-(2,2-dioxido-1-phenyl-3,4-dihydro-1H-2,1-benzothiazin-3-yl)propyl]cyclohexanamine]"
